Reference: patent US20200093103A1, “BREEDING WATER FOR ANGUILLIFORMES AND METHOD FOR REARING ANGUILLIFORMES” (SHIN NIPPON BIOMEDICAL LABORATORIES, LTD., priority 2016, published 2020)

Test system: Anguilla japonica leptocephali
Experiment: Induction of Anguilla japonica metamorphosis by T4 treatment in 23° C. breeding water
Format: in vivo
Set-up: key: L: During life, no characteristics of metamorphosis seen.; Stage 1: Starting phase of metamorphosis. The rostral end is rounded, and intestinal degeneration starts.; Stage 2: Peak phase of metamorphosis. Intestinal degeneration becomes pronounced.; Stage 3: Late phase of metamorphosis.; Stage 4: Pre-glass eel stage. Almost the eel form, but the body height still remains
Source text: Stage 1: Starting phase of metamorphosis. The rostral end is rounded, and intestinal degeneration starts.
Stage 2: Peak phase of metamorphosis. Intestinal degeneration becomes pronounced. In the second half, the anus reaches to near the last vertical blood vessel (VBV last).
Stage 3: Late phase of metamorphosis. The preanal length (PAL) becomes equal to or shorter than the last vertical blood vessel length (VBV last Length) (PAL VBV last Length). The body height is apparently low.
Stage 4: Pre-glass eel stage. Almost the eel form, but the body height still remains. Melanophores on the body surface or endogenous melanophores are not yet seen.
Elver stage: Juvenile stage. Food intake can be identified.
A thyroid hormone (e.g., thyroxine (T4)) is adjusted to 50 to 100 mM in a 1- to 2-mL volume messflask. As a solvent, known solvents (water, alcohol) can be used. Ethanol is preferably used as the solvent.
For example, using ethanol as a solvent, T4 adjusted to 50 mM is diluted 500-fold, 5,000-fold, and 50,000-fold, respectively, and adjusted to […], 1 μM, and 100 nM. A feed can be prepared in this manner.
Artificial seawater is added to a breeding vessel, and 1/1000 of the […] T4 is added to prepare […] T4 breeding water.
Half of the breeding water is replaced every two days with breeding water of the same concentration. In the case where the concentration is changed, for example, in the case of changing from 10 nM to 2 nM, 80% to the breeding water is removed, and unadjusted artificial seawater is newly added to make 1 L.
Leptocephali visually considered to have reached a total length of 40 mm (or may be 30 mm to 50 mm, may be 35 mm to 45 mm, or may also be 35 mm or more, 40 mm or more, or 45 mm or more) are selected, anesthetized with 2-phenoxyethanol, and then photographed, and the total length of each larva is measured using an image analyzing device.
The larvae are placed in 10 nM T4 breeding water and then placed in an incubator set at 23° C., and breeding is started. In first one week, observation is performed every two days, and half of the 10 nM T4 breeding water is replaced each time. The average amount of thyroid hormone in the breeding water in stage 1 is 1 nM to 100 nM, for example, and may also be 3 nM to 30 nM, or 5 nM to 20 nM.
For larvae visually judged to have reached the second half of stage 2, the concentration of the breeding water is changed. The breeding water is diluted 5-fold or 10-fold and adjusted to 2 nM or 1 nM T4, and breeding is continued. The average amount of thyroid hormone in the breeding water in stage 2 may be, as compared with the breeding water of stage 1, diluted 2-fold to 20-fold, diluted 3 to 15-fold, or diluted 5 to 10-fold as described above. The average amount of thyroid hormone in the breeding water in stage 2 is 0.1 nM to 20 nM, for example, and may also be 0.5 nM to 10 nM, 1 nM to 5 nM, or 1 nM to 2 nM.
For larvae visually judged to have reached stage 3, the breeding water is quickly changed 0.2 nM T4 breeding water, which is a 5-fold dilution of 1 nM T4 breeding water, and further changed to 0.1 nM T4 breeding water on the following day. […] Also, in larvae whose anus position has not reached the last vertical hemal spine, when they are judged to be on the brink of stage 3, the concentration is changed as above. The average amount of thyroid hormone in the breeding water in stage 3 may be, as compared with the breeding water of stage 2, diluted 2-fold to 50-fold, diluted 3 to 15-fold, diluted 4 to 6-fold, or diluted 5-fold as described above. The average amount of thyroid hormone in the breeding water in stage 3 is 0.01 nM to 2 nM, for example, and may also be 0.05 nM to 1 nM, 0.1 nM to 0.5 nM, or 0.1 nM to 0.2 nM. […] That is, the concentration may be changed such that the thyroid hormone becomes undetectable in the breeding water in the course of stage 3.
In stage 3, breeding is continuously performed in the 0.1 nM T4 breeding water. […]

**Q.** `N[C@@H](Cc1cc(I)c(Oc2cc(I)c(O)c(I)c2)c(I)c1)C(=O)O` [T4, thyroxine] was tested. Which metamorphosis stage (individual Exp 5-5, 174 days old, total length 36.1 mm at start, c3 onward = treatment days 1,3,5,7,8,9,10,11,12,13,14,15,16,17, T4 (nM) 10,10,10,10,10,10,10,2,0.2,0.1,0.1,0.1,0.1,0.1, treatment day 16, T4 0.1 nM) did it give?
**A.** 3

**Q.** And the metamorphosis stage (individual Exp 5-5, 174 days old, total length 36.1 mm at start, c3 onward = treatment days 1,3,5,7,8,9,10,11,12,13,14,15,16,17, T4 (nM) 10,10,10,10,10,10,10,2,0.2,0.1,0.1,0.1,0.1,0.1, treatment day 17, T4 0.1 nM)?
**A.** 4

**Q.** What about the metamorphosis stage (individual Exp 6-2, 129 days old, total length 38.1 mm at start, c3 onward = treatment days 1,3,5,7,9,10,11,12,13,14,15,16,17,18, T4 (nM) 10,10,10,10,10,2,0.2,0.1,0.1,0.1,0.1,0.1,0.1,0.1) of the same molecule?
**A.** 3

**Q.** And the metamorphosis stage (individual Exp. 5-1, 175 days old, total length 38.5 mm at start, c3 onward = treatment days 1,3,5,7,8,9,10,11,12,13,14,15,16,17,18, T4 (nM) 10,10,10,10,2,1,0.2,0.1,0.1,0.1,0.1,0.1, treatment day 1, T4 10 nM)?
**A.** L

**Q.** And the metamorphosis stage (individual Exp. 5-1, 175 days old, total length 38.5 mm at start, c3 onward = treatment days 1,3,5,7,8,9,10,11,12,13,14,15,16,17,18, T4 (nM) 10,10,10,10,2,1,0.2,0.1,0.1,0.1,0.1,0.1, treatment day 3, T4 10 nM)?
**A.** L

**Q.** What about the metamorphosis stage (individual Exp. 5-1, 175 days old, total length 38.5 mm at start, c3 onward = treatment days 1,3,5,7,8,9,10,11,12,13,14,15,16,17,18, T4 (nM) 10,10,10,10,2,1,0.2,0.1,0.1,0.1,0.1,0.1, treatment day 5, T4 10 nM) of the same molecule?
**A.** 1

**Q.** What about the metamorphosis stage (individual Exp. 5-1, 175 days old, total length 38.5 mm at start, c3 onward = treatment days 1,3,5,7,8,9,10,11,12,13,14,15,16,17,18, T4 (nM) 10,10,10,10,2,1,0.2,0.1,0.1,0.1,0.1,0.1, treatment day 7, T4 10 nM) of the same molecule?
**A.** 2

**Q.** What about the metamorphosis stage (individual Exp. 5-1, 175 days old, total length 38.5 mm at start, c3 onward = treatment days 1,3,5,7,8,9,10,11,12,13,14,15,16,17,18, T4 (nM) 10,10,10,10,2,1,0.2,0.1,0.1,0.1,0.1,0.1, treatment day 8, T4 2 nM) of the same molecule?
**A.** 2

**Q.** What about the metamorphosis stage (individual Exp. 5-1, 175 days old, total length 38.5 mm at start, c3 onward = treatment days 1,3,5,7,8,9,10,11,12,13,14,15,16,17,18, T4 (nM) 10,10,10,10,2,1,0.2,0.1,0.1,0.1,0.1,0.1, treatment day 9, T4 1 nM) of the same molecule?
**A.** 2

**Q.** And the metamorphosis stage (individual Exp. 5-1, 175 days old, total length 38.5 mm at start, c3 onward = treatment days 1,3,5,7,8,9,10,11,12,13,14,15,16,17,18, T4 (nM) 10,10,10,10,2,1,0.2,0.1,0.1,0.1,0.1,0.1, treatment day 10, T4 0.2 nM)?
**A.** 3

**Q.** What about the metamorphosis stage (individual Exp. 5-1, 175 days old, total length 38.5 mm at start, c3 onward = treatment days 1,3,5,7,8,9,10,11,12,13,14,15,16,17,18, T4 (nM) 10,10,10,10,2,1,0.2,0.1,0.1,0.1,0.1,0.1, treatment day 11, T4 0.1 nM) of the same molecule?
**A.** 3

**Q.** And the metamorphosis stage (individual Exp. 5-1, 175 days old, total length 38.5 mm at start, c3 onward = treatment days 1,3,5,7,8,9,10,11,12,13,14,15,16,17,18, T4 (nM) 10,10,10,10,2,1,0.2,0.1,0.1,0.1,0.1,0.1, treatment day 12, T4 0.1 nM)?
**A.** 3

**Q.** What about the metamorphosis stage (individual Exp. 5-1, 175 days old, total length 38.5 mm at start, c3 onward = treatment days 1,3,5,7,8,9,10,11,12,13,14,15,16,17,18, T4 (nM) 10,10,10,10,2,1,0.2,0.1,0.1,0.1,0.1,0.1, treatment day 13, T4 0.1 nM) of the same molecule?
**A.** 3

**Q.** And the metamorphosis stage (individual Exp. 5-1, 175 days old, total length 38.5 mm at start, c3 onward = treatment days 1,3,5,7,8,9,10,11,12,13,14,15,16,17,18, T4 (nM) 10,10,10,10,2,1,0.2,0.1,0.1,0.1,0.1,0.1, treatment day 14, T4 0.1 nM)?
**A.** 3

**Q.** And the metamorphosis stage (individual Exp. 5-1, 175 days old, total length 38.5 mm at start, c3 onward = treatment days 1,3,5,7,8,9,10,11,12,13,14,15,16,17,18, T4 (nM) 10,10,10,10,2,1,0.2,0.1,0.1,0.1,0.1,0.1, treatment day 15, T4 0.1 nM)?
**A.** 4

**Q.** And the metamorphosis stage (individual Exp. 5-2, 175 days old, total length 41.3 mm at start, c3 onward = treatment days 1,3,5,7,8,9,10,11,12,13,14,15,16,17,18, T4 (nM) 10,10,10,10,2,1,0.2,0.1,0.1,0.1,0.1,0.1, treatment day 1, T4 10 nM)?
**A.** L

**Q.** What about the metamorphosis stage (individual Exp. 5-2, 175 days old, total length 41.3 mm at start, c3 onward = treatment days 1,3,5,7,8,9,10,11,12,13,14,15,16,17,18, T4 (nM) 10,10,10,10,2,1,0.2,0.1,0.1,0.1,0.1,0.1, treatment day 3, T4 10 nM) of the same molecule?
**A.** L

**Q.** What about the metamorphosis stage (individual Exp. 5-2, 175 days old, total length 41.3 mm at start, c3 onward = treatment days 1,3,5,7,8,9,10,11,12,13,14,15,16,17,18, T4 (nM) 10,10,10,10,2,1,0.2,0.1,0.1,0.1,0.1,0.1, treatment day 5, T4 10 nM) of the same molecule?
**A.** 2

**Q.** And the metamorphosis stage (individual Exp. 5-2, 175 days old, total length 41.3 mm at start, c3 onward = treatment days 1,3,5,7,8,9,10,11,12,13,14,15,16,17,18, T4 (nM) 10,10,10,10,2,1,0.2,0.1,0.1,0.1,0.1,0.1, treatment day 7, T4 10 nM)?
**A.** 2

**Q.** And the metamorphosis stage (individual Exp. 5-2, 175 days old, total length 41.3 mm at start, c3 onward = treatment days 1,3,5,7,8,9,10,11,12,13,14,15,16,17,18, T4 (nM) 10,10,10,10,2,1,0.2,0.1,0.1,0.1,0.1,0.1, treatment day 8, T4 2 nM)?
**A.** 2

**Q.** What about the metamorphosis stage (individual Exp. 5-2, 175 days old, total length 41.3 mm at start, c3 onward = treatment days 1,3,5,7,8,9,10,11,12,13,14,15,16,17,18, T4 (nM) 10,10,10,10,2,1,0.2,0.1,0.1,0.1,0.1,0.1, treatment day 9, T4 1 nM) of the same molecule?
**A.** 2

**Q.** What about the metamorphosis stage (individual Exp. 5-2, 175 days old, total length 41.3 mm at start, c3 onward = treatment days 1,3,5,7,8,9,10,11,12,13,14,15,16,17,18, T4 (nM) 10,10,10,10,2,1,0.2,0.1,0.1,0.1,0.1,0.1, treatment day 10, T4 0.2 nM) of the same molecule?
**A.** 3

**Q.** And the metamorphosis stage (individual Exp. 5-2, 175 days old, total length 41.3 mm at start, c3 onward = treatment days 1,3,5,7,8,9,10,11,12,13,14,15,16,17,18, T4 (nM) 10,10,10,10,2,1,0.2,0.1,0.1,0.1,0.1,0.1, treatment day 11, T4 0.1 nM)?
**A.** 3

**Q.** And the metamorphosis stage (individual Exp. 5-2, 175 days old, total length 41.3 mm at start, c3 onward = treatment days 1,3,5,7,8,9,10,11,12,13,14,15,16,17,18, T4 (nM) 10,10,10,10,2,1,0.2,0.1,0.1,0.1,0.1,0.1, treatment day 12, T4 0.1 nM)?
**A.** 3

**Q.** And the metamorphosis stage (individual Exp. 5-2, 175 days old, total length 41.3 mm at start, c3 onward = treatment days 1,3,5,7,8,9,10,11,12,13,14,15,16,17,18, T4 (nM) 10,10,10,10,2,1,0.2,0.1,0.1,0.1,0.1,0.1, treatment day 13, T4 0.1 nM)?
**A.** 3
